According to US9457044B2, “Methods and compositions for wound healing” (CoDa Therapeutics, Inc., priority 2006, dated 2016):

Legend:
BrdU-positive cells = assay: BrdU labeling of proliferating cells at wound sites; type: in vivo, mice
Procedure: (§1) Male, 8 week old, ICR mice were used in the following experiments. All the mice were kept under specific pathogen-free conditions in an environmentally controlled clean room at University College London and all the experiments were carried out under UK Home Office regulations. Mice were anaesthetized by halothane inhalation. Four full-thickness excisional wounds of 6 mm diameter were made on the shaved back on either side of the dorsal midline with a 6 mm biopsy punch (Kai Industries). To each pair of wounds a single topical application of 50 μl of 1 μM Cx43 as ODN (SEQ. ID No. 2) (Sigma-Genosys) in 30% Pluronic F-127 gel (Sigma-Aldrich), chilled on ice, was made to one wound, and an identical application of 1 μM sense control sODNs was made to the other. […] R. and Becker, D. L. (2003). Targeting connexin 43 expression accelerates the rate of wound repair. Curr Biol 13, 1697-703). Each wound region was digitally photographed at the indicated time intervals, and the areas of the wounds were calculated. All wound areas were expressed as percentages of the initial wound areas. In some series of experiments, wounds and their surrounding area, including the scab and epithelial margins, were harvested with an 8 mm biopsy punch (Kai Industries) at the indicated time intervals after mice were killed with an overdose of chloroform. A minimum of eight mice were used for each time point examined.
In another experiment, wounded mice were injected intraperitoneally with 1 ml of BrdU (Sigma) in PBS solution (1 mg/ml) 2 hours before harvesting on days 1, 2, and 7. Wound tissues were fixed in 4% formaldehyde buffered with PBS, and embedded in paraffin. Deparaffinized sections (6 μm thick) were treated with a HistoMouse™-Plus Kit (ZYMED Laboratories, Inc) to reduce background signals according to manufacturer's instructions. […]
A treatment-blinded observer counted MPO-positive neutrophils and F4/80-positive macrophages in the wound bed (defined as the area surrounded by unwounded skin, fascia, regenerated epidermis, and eschar) in 3 random high-power fields of 0.332 mm^2. BrdU-positive cells in the wound margin and the nascent epidermis regions of each immunohistochemically stained section were counted as described previously and expressed per […] of epidermis (Mori, R., Kondo, T., Nishie, T., Ohshima, T. and Asano, M. (2004). Impairment of skin wound healing in beta-1,4-galactosyltransferase-deficient mice with reduced leukocyte recruitment. Am J Pathol 164, 1303-14). Number of fibroblast like cells (phalloidin-positive cells with spindle-shape body) at the wound margin were counted in high-power fields also (each field was 0.332 mm^2). […] Images were made binary at a standard threshold and positive pixels were counted using Image J (NIH Image).

[1] = system: F4/80-positive macrophages; assay: Macrophage recruitment into wound site (F4/80 immunohistochemistry); type: in vivo, mice
Procedure: as §1, with “In some series of experiments, wounds and their surrounding area, including the scab and epithelial margins, were harvested with an 8 mm biopsy punch (Kai Industries) at the indicated time intervals after mice were killed with an overdose of chloroform. A minimum of eight mice were used for each time point examined.” left out
A treatment-blinded observer counted MPO-positive neutrophils and F4/80-positive macrophages in the wound bed (defined as the area surrounded by unwounded skin, fascia, regenerated epidermis, and eschar) in 3 random high-power fields of 0.332 mm^2. […]

Cx43 protein = Cx43 protein knockdown in confluent fibroblast cultures; type: cell-based; settings: within two hours
Procedure: Swiss 3T3 fibroblasts were grown in Dulbecco's modified Eagle's medium (DMEM; Gibco) supplemented with 10% fetal calf serum (Labtech) and 1% penicillinstreptomycin solution (Sigma, Poole) in a 5% CO2 incubator at 37° C. Unless otherwise stated, the cells were maintained in this medium for most experiments. The cells were passaged by trypsinization and used at passages 6-10 at a confluency of Z 90%. Cells were plated on 13 mm glass coverslips in 24-well dishes (Nunc) with 4−5×10^5 cells per well containing 1 ml of medium. Cells reached confluency after 72 hours and were then used for experimentation.
In order to knock down Cx43 expression in the fibroblasts the media was replaced with serum-free DMEM containing either 20 μM asODNs or 20 μM control sODNs. This was incubated for two hours before being replaced with serum containing DMEM. The wounding assay was then carried out as above.

[2] = system: human limbal epithelial cells; assay: Human limbal rim-denuded pig stromal matrix chimera re-epithelialisation; type: cell-based; settings: treated at day one; controls 7 to 14 days
Procedure: Human limbal rims returned from surgery after excision of the central corneas for keratoplasty (transplant) were placed into air liquid interface organotypic culture and a denuded pig stromal extracellular matrix inserted into the central region (FIG. 14). The pig stromal matrix was denuded (cells removed) by freeze-thawing in liquid nitrogen.
The chimeras were grown for up to 2 weeks at which time the human limbal epithelial cells have re-epithelialised the pig stroma with a normal 5-7 cell layer fully differentiated epithelium. In addition, human limbal stromal keratocytes have proliferated and migrated across the limbal rim—stromal insert to repopulate the pig stromal matrix with human keratocytes.
In a further experiment the chimeras were treated with connexin 43 specific antisense ODNs at day one.

With “GTAATTGCGGCAGGAGGAATTGTTTCTGTC (antisense GTAATTGCGGCAGGAGGAATTGTTTCTGTC; in Pluronic F-127 gel, further chemistry not given here) [Cx43 asODN]” as the sequence, how does the “keratinocyte proliferation in the epidermal wound margin, control versus treated” value (BrdU-positive cells; FIG. 2E) read?
Its value is “little difference”.

And the “BrdU-positive cells in the dermal wound margin” value (BrdU-positive cells; FIG. 2G)?
The value was “slightly more cells”.

What about the “BrdU-positive cells in the nascent epidermis” value (BrdU-positive cells; after both 2 days and 7 days) of the same sequence?
The value was “significantly increased numbers”.

What about the “BrdU-positive cells in the granulation tissue” value (BrdU-positive cells; days 1 and 2) of the same sequence?
The value was “significantly more”.

And the “reduction of number of macrophages versus control sODN-treated wounds” value ([1]; day 2)?
The value was 33%.

And the “reduction of number of macrophages versus control sODN-treated wounds” value ([1]; day 7)?
The value was 32%.

What about the “knockdown of Cx43 protein” value (Cx43 protein) of the same sequence?
The value was 95%.

What about the “time to full epithelial covering of the pig stroma” value [2] of the same sequence?
The value was at most 3 days.
